Where a SMILES comes first, the peptide text is derived from it. Where no end group is shown, it is not given here. The star is where a group is joined. Biotin = O=C1N[C@H]2[C@H](CS[C@H]2CCCCC(=O)*)N1
Legend:
SHP-1 = target: T1, SHP-1 (Rattus norvegicus, UniProt P81718); experiment: Cell lysate adsorption to peptides, anti-SHP-1 immunoblot; type: binding; details: RBL-2H3 lysates, peptide on streptavidin beads
T1 construct: endogenous in cells; host or cells: RBL-2H3
Procedure: (§1) Assay for cell lysate adsorption to peptides. RBL-2H3 cells were lysed in NP-40 lysis buffer (1% NP-40, 10 mM Tris-HCl, 150 mM NaCl, 1 mM EDTA, 1 mM PMSF, 10 mM iodoacetamide, 10 mM NaF, 10 mM Na pyrophosphate, 0.4 mM Na vanadate, 10 μg/ml leupeptine, 10 μg/ml aprotinine). Samples were either used directly (whole cell lysates: WCL), or subjected to affinity purification using peptides bound to beads. Biotinylated peptides (5 μg) were coupled to 50 μl streptavidin-agarose bead slurry (Sigma) for 1 hour at 4° C., prior to bead saturation with D-biotin (1 mg/ml) for 1 hour at 4° C. After 3 washes in lysis buffer, samples were separated on SDS-PAGE and transferred to nitrocellulose.
(§2) RBL-2H3 and ^35S-labeled IIA.1.6 cells were lysed in NP-40 lysis buffer (1% NP-40, 10 mM Tris-HCl, 150 mM NaCl, 1 mM EDTA, 1 mM PMSF, 10 mM iodoacetamide, 10 mM NaF, 10 mM Na pyrophosphate, 0.4 mM Na vanadate, 10 μg/ml leupeptin, 10 μg/ml aprotinin). Samples were either used directly (whole cell lysates: WCL), or subjected to affinity purification using peptides bound to beads. Biotinylated peptides (5 μg) were coupled to 50 μl streptavidin-agarose slurry beads for 1 hour at 4° C., prior to bead saturation with D-biotin (1 mg/ml) for 1 hour at 4° C. After 3 washes in lysis buffer, samples were fractionated on 8% SDS-polyacrylamide gel electrophoresis (SDS-PAGE) under reducing condition and transferred to nitrocellulose.
(§3) Results are illustrated by FIG. 15 showing the in vitro interaction between NKG2A ITIMs and SHP-1, SHP-2 and SHIP phosphatases. In FIG. 15, RBL-2H3 cell lysates (15A) or ^35S-labeled ILA.1.6 cell lysates (15B) were absorbed with indicated biotinylated peptides coupled to streptavidin-beads. Affinity-bound proteins (30×10^6 cells/sample) or whole cell lysates (WCL, 5×10^6 cells/sample) were resolved on 8% SDS-PAGE under reducing conditions prior to autoradiography (15B), or immunoblotting using anti-SHIP antiserum, anti-SHP-2 mAb and anti-SHP-1 mAbs (15A).

SHP-2 = target: T2, SHP-2 (Rattus norvegicus, UniProt P41499); experiment: Cell lysate adsorption to peptides, anti-SHP-2 immunoblot; type: binding; details: RBL-2H3 lysates, peptide on streptavidin beads
T2 construct: RBL-2H3 cells were lysed in NP-40 lysis buffer; endogenous in cells; host or cells: RBL-2H3
T2 sequence (P41499 1-593): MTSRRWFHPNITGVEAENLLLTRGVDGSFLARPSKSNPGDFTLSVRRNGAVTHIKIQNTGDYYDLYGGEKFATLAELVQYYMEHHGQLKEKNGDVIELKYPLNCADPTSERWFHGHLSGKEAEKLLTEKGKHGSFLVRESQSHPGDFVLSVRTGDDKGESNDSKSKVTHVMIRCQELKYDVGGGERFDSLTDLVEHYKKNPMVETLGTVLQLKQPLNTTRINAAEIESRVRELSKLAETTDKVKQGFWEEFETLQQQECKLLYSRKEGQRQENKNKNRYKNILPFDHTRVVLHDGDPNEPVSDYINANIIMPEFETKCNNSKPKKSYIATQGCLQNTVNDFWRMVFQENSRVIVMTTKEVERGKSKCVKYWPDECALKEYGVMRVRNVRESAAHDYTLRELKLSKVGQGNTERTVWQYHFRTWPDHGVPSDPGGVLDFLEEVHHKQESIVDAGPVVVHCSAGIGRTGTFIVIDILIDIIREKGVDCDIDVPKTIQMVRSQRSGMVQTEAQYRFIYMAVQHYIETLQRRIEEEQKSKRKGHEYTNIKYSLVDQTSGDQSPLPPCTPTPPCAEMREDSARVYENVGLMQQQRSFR
Procedure: as §1, §2, §3

SHIP = target: T3, SHIP (Rattus norvegicus, UniProt P97573); experiment: Cell lysate adsorption to peptides, anti-SHIP immunoblot; type: binding; details: RBL-2H3 lysates, peptide on streptavidin beads
T3 construct: RBL-2H3 cells were lysed in NP-40 lysis buffer; endogenous in cells; host or cells: RBL-2H3
T3 sequence (P97573 1-1190): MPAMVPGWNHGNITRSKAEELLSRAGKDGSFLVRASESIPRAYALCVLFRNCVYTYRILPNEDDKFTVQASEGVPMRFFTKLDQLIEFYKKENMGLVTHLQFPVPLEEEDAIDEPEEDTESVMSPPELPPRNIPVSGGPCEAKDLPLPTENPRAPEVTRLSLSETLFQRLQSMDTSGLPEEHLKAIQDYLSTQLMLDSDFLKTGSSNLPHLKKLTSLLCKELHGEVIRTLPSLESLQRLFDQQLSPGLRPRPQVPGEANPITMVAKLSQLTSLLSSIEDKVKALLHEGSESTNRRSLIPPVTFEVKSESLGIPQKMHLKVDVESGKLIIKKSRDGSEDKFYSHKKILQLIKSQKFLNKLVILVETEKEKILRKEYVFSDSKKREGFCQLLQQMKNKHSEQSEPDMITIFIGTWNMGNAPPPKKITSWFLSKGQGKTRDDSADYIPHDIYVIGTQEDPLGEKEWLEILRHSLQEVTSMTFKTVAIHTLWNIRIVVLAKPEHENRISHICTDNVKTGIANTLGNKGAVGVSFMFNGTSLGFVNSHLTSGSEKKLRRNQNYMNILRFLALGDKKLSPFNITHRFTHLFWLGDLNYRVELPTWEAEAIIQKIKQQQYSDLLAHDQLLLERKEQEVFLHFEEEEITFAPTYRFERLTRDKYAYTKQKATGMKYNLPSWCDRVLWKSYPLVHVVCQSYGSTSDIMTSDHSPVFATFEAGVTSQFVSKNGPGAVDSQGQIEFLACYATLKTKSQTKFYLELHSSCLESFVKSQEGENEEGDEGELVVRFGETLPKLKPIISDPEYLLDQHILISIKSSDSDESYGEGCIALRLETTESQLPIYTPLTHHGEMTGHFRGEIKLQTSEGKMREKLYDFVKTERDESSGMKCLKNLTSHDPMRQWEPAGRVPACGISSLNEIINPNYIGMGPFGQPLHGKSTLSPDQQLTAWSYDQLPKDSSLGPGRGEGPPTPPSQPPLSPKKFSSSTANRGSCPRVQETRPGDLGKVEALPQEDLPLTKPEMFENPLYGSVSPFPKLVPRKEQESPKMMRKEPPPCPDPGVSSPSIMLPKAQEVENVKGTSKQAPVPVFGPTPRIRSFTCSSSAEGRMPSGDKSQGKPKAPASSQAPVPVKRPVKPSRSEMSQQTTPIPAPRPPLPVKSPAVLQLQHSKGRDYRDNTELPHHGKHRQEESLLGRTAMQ
Procedure: as §1, §2, §3

GST-SHP-1.SH2(N) = target: T4, GST-SHP-1.SH2(N) (Mus musculus, UniProt P29351); experiment: Surface plasmon resonance (BIAcore), SHP-1 N-SH2 domain; type: binding, murine; details: for koff / kon: phosphorylated peptide immobilized, 5 μl/min
T4 construct: recombinant fusion proteins corresponding to the isolated N- and C-SH2 domains of SHP-1; made in house; host or cells: E. coli DH5α
T4 sequence (P29351 4-100 limits assumed): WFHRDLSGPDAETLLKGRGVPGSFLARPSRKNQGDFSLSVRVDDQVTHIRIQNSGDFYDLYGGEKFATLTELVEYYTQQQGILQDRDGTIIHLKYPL
Procedure: (§4) Fusion proteins and surface plasmon resonance analysis. Surface plasmon resonance (SPR) measurements were performed on a BIAcore™ (Pharmacia). The GST-SHP-1.SH2(NC), GST-SHP-1.SH2(N), GST-SHP-1.SH2(C), GST-SHIP.SH2 fusion proteins generated from the murine phosphatase cDNA, were purified from DH5α lysates. Briefly, overnight culture at 37° C. in LB medium containing 50 μg/ml ampicillin was diluted 1/10 in fresh medium, and incubated until the absorbance at 600 nm reaches 1-2. At that point, IPTG was added (1 mM), and incubation continued for an additional 4 hours at 37° C. After centrifugation, bacteria pellet was resuspended in TENGN buffer (50 mM Tris pH 8, 1 mM EDTA, 10% glycerol, 1% NP40, 1 mM DTT, 1 mM PMSF, 10 μg/ml aprotinin and 10 μg/ml leupeptine). Bacteria were lysed by sonication. After centrifugation, supernatant was incubated with Glutathione-Sepharose 4B beads (Pharmacia) overnight at 4° C. with slow shaking. After 3 washes with 50 mM Tris pH 8, elution of the fusion protein was carried out using 50 mM Tris pH 8 supplemented with 10 mM reduced glutathione. Before their use in BIAcore™ experiments, fusion proteins were dialyzed in HBS buffer (10 mM HEPES, 150 mM NaCl, 3.4 mM EDTA). Protein purity was assessed by 12.5% SDS-PAGE, and Coomassie blue staining. The running buffer used in all BIAcore™ experiments consisted of HBS buffer supplemented with 0.05% surfactant P20. For preparation of microchips coated with phosphorylated peptides, immunopure streptavidine (Sigma) was first immobilized onto CMS-sensorchip. Then, biotinylated peptides were injected, and their binding to streptavidine-coated microchips was assessed using anti-phosphotyrosine 4G10 mAb (UHI).
(§5) The measurement of phosphorylated p58.2 peptide binding to GST-SHP-1.SH2(N) and GST-SHP-1.SH2(C) fusion proteins was at a constant 5 μl/min flow rate. In the representative experiment of which results are reported in the above table I, 130 and 160 RU of respectively p58.2.1 and p58.2.2 peptides were immobilized on microchips. The regeneration was performed using HBS buffer supplemented with 0.03% SDS. Results are expressed as corrected resonance units (CRU) corresponding to the raw RU values subtracted from background RU value due to the injection medium. […] koff and kon were calculated from three independent measurements using the BLAevaluation 2.0 software. Kd was calculated from koff/kon.

GST-SHP-1.SH2(C) = target: T5, GST-SHP-1.SH2(C) (Mus musculus, UniProt P29351); experiment: Surface plasmon resonance (BIAcore), SHP-1 C-SH2 domain; type: binding, murine; details: phosphorylated peptide immobilized; 5 μl/min
T5 construct: recombinant fusion proteins corresponding to the isolated N- and C-SH2 domains of SHP-1; made in house; host or cells: E. coli DH5α
T5 sequence (P29351 110-213 limits assumed): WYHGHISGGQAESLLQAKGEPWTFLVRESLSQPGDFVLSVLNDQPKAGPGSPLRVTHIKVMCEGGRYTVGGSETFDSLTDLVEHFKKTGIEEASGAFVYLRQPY
Procedure: as §4, §5

T1 sequence (P81718 whole entry): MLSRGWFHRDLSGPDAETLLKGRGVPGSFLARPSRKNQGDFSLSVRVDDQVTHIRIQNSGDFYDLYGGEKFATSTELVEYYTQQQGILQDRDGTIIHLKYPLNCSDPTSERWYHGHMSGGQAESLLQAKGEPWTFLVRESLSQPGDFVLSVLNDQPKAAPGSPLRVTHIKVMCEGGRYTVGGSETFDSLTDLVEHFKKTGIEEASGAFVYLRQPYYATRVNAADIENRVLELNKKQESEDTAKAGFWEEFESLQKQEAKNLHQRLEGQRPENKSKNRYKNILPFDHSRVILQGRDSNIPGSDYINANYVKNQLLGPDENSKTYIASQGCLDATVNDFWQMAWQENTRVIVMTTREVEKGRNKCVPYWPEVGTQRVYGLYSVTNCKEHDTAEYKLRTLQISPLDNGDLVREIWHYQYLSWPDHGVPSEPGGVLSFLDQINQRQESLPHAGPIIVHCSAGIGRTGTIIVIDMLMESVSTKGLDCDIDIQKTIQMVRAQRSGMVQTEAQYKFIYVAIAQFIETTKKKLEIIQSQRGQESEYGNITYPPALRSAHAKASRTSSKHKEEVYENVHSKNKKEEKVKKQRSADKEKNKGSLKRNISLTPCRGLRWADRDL

Row | Molecule | binding of SHP-1 from cell lysates (SHP-1) | binding of SHP-2 from cell lysates (SHP-2) | binding of SHIP from cell lysates (SHIP) | Kd (GST-SHP-1.SH2(N)) | koff (GST-SHP-1.SH2(N)) | kon (GST-SHP-1.SH2(N)) | koff (GST-SHP-1.SH2(C)) | kon (GST-SHP-1.SH2(C)) | binding of SHIP from cell lysates (SHIP; listed as FcγRIIB phosphorylated ITIM peptides)
1 | KTEAENTATY262SLLK (KTEAENTATYSLLK) [FcγRIIB 1-I260A, point mutant of FcγRIIB ITIM peptide] | abolishes the binding | abolishes the binding | not affected |  |  |  |  |  | 
2 | KTEAENTITY262SLLK [nonphosphorylated peptides corresponding to FcγRIIB] | No association | No association | No association |  |  |  |  |  | 
3 | CC(C)C[C@H](NC(=O)[C@H](CCC(N)=O)NC(=O)[C@H](C)NC(=O)[C@H](Cc1ccc(OP(=O)(O)O)cc1)NC(=O)[C@@H](NC(=O)[C@@H](NC(=O)[C@H](CCC(=O)O)NC(=O)[C@H](CCC(N)=O)NC(=O)[C@@H]1CCCN1C(=O)[C@H](CC(=O)O)NC(=O)[C@H](CCC(N)=O)NC(=O)[C@H](CCC(=O)O)NC(=O)[C@H](CC(=O)O)NC(=O)CCCC[C@@H]1SC[C@@H]2NC(=O)N[C@@H]21)C(C)C)[C@@H](C)O)C(=O)N[C@@H](CC(N)=O)C(=O)N[C@@H](Cc1c[nH]cn1)C(=O)O [p58.2.1, DEQDPQEVTY303AQLNH] (HELM PEPTIDE1{[O=C1N[C@H]2[C@H](CS[C@H]2CCCCC(=O)[*:2])N1].D.E.Q.D.P.Q.E.V.T.[O=C([C@H](Cc1ccc(OP(=O)(O)O)cc1)N[*:1])[*:2]].A.Q.L.N.H}$$$$V2.0) |  |  |  | 0.423 µM | 0.042 s⁻¹ | 100000 M⁻¹ s⁻¹ | 0.0007 s⁻¹ | 5000 M⁻¹ s⁻¹ | 
4 | DEQDPQEATY303AQLN (DEQDPQEATYAQLN) [p58.2.1-V301A, point mutant of KIR N-terminal ITIM peptide] | abolishes the binding | abolishes the binding |  |  |  |  |  |  | 
5 | CC[C@H](C)[C@H](NC(=O)[C@H](CC(=O)O)NC(=O)[C@@H](NC(=O)[C@@H]1CCCN1C(=O)[C@@H]1CCCN1C(=O)[C@@H](NC(=O)[C@H](CCCCN)NC(=O)[C@@H]1CCCN1C(=O)[C@H](CCCNC(=N)N)NC(=O)[C@H](CCC(N)=O)NC(=O)[C@H](CO)NC(=O)[C@@H]1CCCN1C(=O)[C@H](CCCNC(=N)N)NC(=O)CCCC[C@@H]1SC[C@@H]2NC(=O)N[C@@H]21)[C@@H](C)O)[C@@H](C)O)C(=O)N[C@H](C(=O)N[C@H](C(=O)N[C@@H](Cc1ccc(OP(=O)(O)O)cc1)C(=O)N[C@H](C(=O)N[C@@H](CCC(=O)O)C(=O)N[C@@H](CC(C)C)C(=O)N1CCC[C@H]1C(=O)N[C@@H](CC(N)=O)C(=O)N[C@@H](C)C(=O)N[C@@H](CCC(=O)O)C(=O)N1CCC[C@H]1C(=O)O)[C@@H](C)O)C(C)C)[C@@H](C)CC [p58.2.2, RP SQ RPKTPPTDIIVY333TELPNAEP] (HELM PEPTIDE1{[O=C1N[C@H]2[C@H](CS[C@H]2CCCCC(=O)[*:2])N1].R.P.S.Q.R.P.K.T.P.P.T.D.I.I.V.[O=C([C@H](Cc1ccc(OP(=O)(O)O)cc1)N[*:1])[*:2]].T.E.L.P.N.A.E.P}$$$$V2.0) |  |  |  | 3.16 µM | 0.025 s⁻¹ | 8000 M⁻¹ s⁻¹ | 0.0003 s⁻¹ | 600 M⁻¹ s⁻¹ | 
6 | KTEAENTITY262SLLK [FcγRIIB ITIM] (Biotin-KTEAENTITYSLLK) [murine FcγRIIB1/B2 ITIM peptide] | recruit | recruit | recruit |  |  |  |  |  | associate
